# Assay: FeCl2 catalyzed oxidation of a dihydrotetrazine in the presence of H2O2
# Settings: DHTz 100 μM, 1 mM H2O2, FeCl2 0.05 mM, deionized water
# Experimental: N′-Boc PEG10 dipyridyl-dihydrotetrazine was dissolved in deionized water containing 1 mM H2O2 to give a final DHTz concentration of 100 μM. The UV absorbance at 330 nm wavelength was monitored over 10 min. Then a 5 mM FeCl2 stock solution was added and mixed quickly to get a final FeCl2 concentration of 0.05 mM., followed by continuous monitoring of UV absorbance at 330 nm over 10 min. Oxidation was rapid and complete within ˜1 minute.
compound,measurement,value
CC(C)(C)OC(=O)NCCOCCOCCOCCOCCOCCOCCOCCOCCOCCOCCOCCNC(=O)CCCC(=O)Nc1ccc(C2=NNC(c3ccccn3)=NN2)nc1 [N′-Boc PEG10 dipyridyl-dihydrotetrazine],time to complete oxidation,~1 min

# Reference: patent US11485987B2, “Methods for inducing bioorthogonal reactivity” (University of Delaware, priority 2015, dated 2022)
